Results as given in patent EP0642504B1 (priority 1991, dated 1993).
Marks after values point to notes of the source that are not given here.

How the values were obtained:
[1] = tested on: mouse; test: Mouse hot plate test (55°C) for antinociception; assay type: in vivo
Method: In the hot plate test for analgesia an aluminum surface was maintained at 55 ± 1°C by circulating water through passages in the metal. A clear plastic cylinder 18 cm in diameter and 26 cm high was placed on the surface to prevent escape. The end point was taken when the mouse either performed a hind paw lick or jumped off the surface; in no case were the animals kept for more than 30 secs on the plate. Mice were never used more than one time; control values were always measured at 11 a.m. and test values at 2 p.m. The drugs were administered orally 90 min before the hot plate test. The percent change in response time (latency) was calculated by comparing the mean of the control values with the mean of the test values and statistical signficance determined by a paired t-test analysis using software (Statview, 512) from Brainpower, Inc., Calabasas, Ca.

[2] = tested on: mouse; test: Ring test for cataleptic effects; assay type: in vivo; conditions: 5-min test period, vehicle 7.7 ± 4.4
Method: The lack of CNS activity for the compounds described herein may be seen from the data shown in Table V. This was measured by the so-called "ring test" [Pertwee, R.G., et al., J. Pharmacol., 46, 753 (1972)] in which the cataleptic effects of cannabinoids can be quantitated. The compounds produced little or no response when compared with the parent drug.
The cataleptic response was measured using the ring test. Mice were placed on a horizontal wire ring 5.5 cm in diameter, which was attached to a 16 cm vertical rod. The hind paws and fore paws were placed at opposite sides of the ring. It is important that the ambient temperature is maintained at 30°C and that the environment be free of auditory stimuli and bright lights. The criteria for immobility are detailed by Pertwee. The response is calculated as the fraction of time the mouse is immobile over a 5-min test period. Measurements were always done between 2 and 4 p.m. and the animals were used only once.

CCCCCCC(C)(C)c1cc(OC(C)=O)c2c(c1)OC(C)(C)[C@H]1CC=C(C(=O)O)C[C@H]21 [HU-245, (3S,4S)-THC-DMH-7-oic acid, acetate]
percent change in latency ([1]; dose 0.025 mg/kg orally 90 min before the hot plate test): 10.7(5) percent
percent change in latency ([1]; dose 0.050 mg/kg orally 90 min before the hot plate test): 66.2(5)* percent
percent change in latency ([1]; dose 0.10 mg/kg orally 90 min before the hot plate test): 62.2(5)* percent
percent change in latency ([1]; dose 0.25 mg/kg orally 90 min before the hot plate test): 68.1(10)* percent
percent change in latency ([1]; dose 0.50 mg/kg orally 90 min before the hot plate test): 49.9(5)* percent
percent change in latency ([1]; dose 1.0 mg/kg orally 90 min before the hot plate test): 12.5(5) percent
Response ± SD (means of the fraction of time the mice remained immobile) ([2]; dose 0.5 mg/kg): 6.8 ± 2.4
Response ± SD (means of the fraction of time the mice remained immobile) ([2]; dose 1.0 mg/kg): 12.0 ± 6.0
